The text below walks through data of ChEMBL document CHEMBL1146058, “Discovery of trans-3,4'-bispyridinylethylenes as potent and novel inhibitors of protein kinase B (PKB/Akt) for the treatment of cancer: Synthesis and biological evaluation” (Bioorg Med Chem Lett, 2006).

The term inhibition denotes the relative decrease from the control value, in per cent. As a reminder, the Cmax is the highest concentration seen after dosing. The term half-life denotes the time in which the quantity being followed falls by half. One may read the clearance as a measure of how efficiently the substance is removed, as volume per time. For orientation: IC50 means the concentration that inhibits the measured activity by half. What is called bioavailability is the share of a dose that reaches the circulation, judged against a reference dose that is usually intravenous.

For series [1], the target named is T1, RAC-alpha serine/threonine-protein kinase (Homo sapiens, UniProt P31749). The series is described as follows: Inhibition of Akt1 at 5.33 uM.
T1 sequence (P31749 whole entry): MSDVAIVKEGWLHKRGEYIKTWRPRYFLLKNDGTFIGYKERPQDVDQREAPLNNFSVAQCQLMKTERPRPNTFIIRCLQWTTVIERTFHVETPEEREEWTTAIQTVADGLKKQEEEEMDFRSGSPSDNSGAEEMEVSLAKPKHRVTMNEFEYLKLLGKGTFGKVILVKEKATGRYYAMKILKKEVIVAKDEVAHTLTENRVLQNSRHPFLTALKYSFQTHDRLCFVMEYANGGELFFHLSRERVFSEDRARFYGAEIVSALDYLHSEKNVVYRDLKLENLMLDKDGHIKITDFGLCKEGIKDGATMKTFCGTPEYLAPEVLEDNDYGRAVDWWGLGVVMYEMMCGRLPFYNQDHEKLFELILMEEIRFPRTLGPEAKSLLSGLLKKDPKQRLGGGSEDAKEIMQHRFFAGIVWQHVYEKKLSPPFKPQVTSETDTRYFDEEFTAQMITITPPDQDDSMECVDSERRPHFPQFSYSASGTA
The target in series [2] is T1, RAC-alpha serine/threonine-protein kinase. Description: Inhibition of Akt1 at 50 uM.
The nature of series [3]: Volume of distribution in rat at 5 mg/kg. Also noted: dose 5 mg/kg. The settings on record: in vivo, read-out: Vdss. In kind it is ADME, organism-based.
Series [4] is described as follows: Cmax in mouse at 30 mg/kg. Details: dose 30 mg/kg. The settings on record: in vivo. In kind it is ADME, organism-based.
Series [5] in a line: Cmax in rat at 5 mg/kg. In kind it is ADME, organism-based. The following applies: in vivo. Details: dose 5 mg/kg.
Series [6] can be described thus: Cmax in dog at 2.5 mg/kg. In kind it is ADME, organism-based, Canis lupus familiaris. Also noted: dose 2.5 mg/kg. The settings on record: in vivo.
The nature of series [7]: Volume of distribution in dog at 2.5 mg/kg. In kind it is ADME, organism-based, Canis lupus familiaris. Also noted: dose 2.5 mg/kg. The settings on record: in vivo, read-out: Vdss.
A short description of series [8]: Half life in monkey at 2.5 mg/kg. In kind it is ADME, organism-based, Macaca mulatta. Details: dose 2.5 mg/kg. The settings on record: rhesus monkey, in vivo.
Series [9] in a line: Plasma clearance in mouse at 30 mg/kg. The series is classed as ADME, organism-based. Also noted: dose 30 mg/kg.
Series [10] has as its system MIA PaCa-2. The series is described as follows: Antiproliferative activity against MiaPaCa-2 cells by MTT assay. In kind it is functional, cell-based. The following applies: Homo sapiens. On the technique in general: Tetrazolium assays rely on reduction of a dye to a coloured formazan, in cell work by metabolically active cells.
A short description of series [11]: Plasma clearance in rat at 5 mg/kg. Also noted: dose 5 mg/kg. In kind it is ADME, organism-based.
Series [12] can be described thus: Cmax in monkey at 2.5 mg/kg. The following applies: rhesus monkey, in vivo. Details: dose 2.5 mg/kg. The series is classed as ADME, organism-based, Macaca mulatta.
Series [13] can be described thus: Oral bioavailability in mouse at 30 mg/kg. In kind it is ADME, organism-based. The following applies: in vivo.
The nature of series [14]: Oral bioavailability in rat at 5 mg/kg. The series is classed as ADME, organism-based. The following applies: in vivo.
Series [15] is described as follows: Half life in rat at 5 mg/kg. The series is classed as ADME, organism-based. Details: dose 5 mg/kg. The following applies: in vivo.
A short description of series [16]: Volume of distribution in mouse at 30 mg/kg. The settings on record: in vivo, read-out: Vdss. Also noted: dose 30 mg/kg. The series is classed as ADME, organism-based.
Series [17] is described as follows: Plasma clearance in monkey at 2.5 mg/kg. The series is classed as ADME, organism-based, Macaca mulatta. Details: dose 2.5 mg/kg. The following applies: rhesus monkey.
Series [18] can be described thus: Half life in dog at 2.5 mg/kg. The settings on record: in vivo. Details: dose 2.5 mg/kg. In kind it is ADME, organism-based, Canis lupus familiaris.
A short description of series [19]: Oral bioavailability in dog at 2.5 mg/kg. The settings on record: in vivo. In kind it is ADME, organism-based, Canis lupus familiaris.
Series [20] can be described thus: Oral bioavailability in monkey at 2.5 mg/kg. The settings on record: rhesus monkey, in vivo. The series is classed as ADME, organism-based, Macaca mulatta.
Series [21] in a line: Plasma clearance in dog at 2.5 mg/kg. The series is classed as ADME, organism-based, Canis lupus familiaris. Details: dose 2.5 mg/kg.
A short description of series [22]: Half life in mouse at 30 mg/kg. The settings on record: in vivo. Also noted: dose 30 mg/kg. The series is classed as ADME, organism-based.
Series [23] in a line: Volume of distribution in monkey at 2.5 mg/kg. The settings on record: rhesus monkey, in vivo, read-out: Vdss. Details: dose 2.5 mg/kg. In kind it is ADME, organism-based, Macaca mulatta.
A short description of series [24]: Half life in mouse at 10 mg/kg. In kind it is ADME, organism-based. The following applies: in vivo. Also noted: dose 10 mg/kg.
Series [25] in a line: Cmax in mouse at 10 mg/kg. Also noted: dose 10 mg/kg. The following applies: in vivo. The series is classed as ADME, organism-based.
The nature of series [26]: Oral bioavailability in mouse at 10 mg/kg. In kind it is ADME, organism-based. The following applies: in vivo.
Series [27] is described as follows: Volume of distribution in mouse at 10 mg/kg. The series is classed as ADME, organism-based. Also noted: dose 10 mg/kg. The following applies: in vivo, read-out: Vdss.
A short description of series [28]: Plasma clearance in mouse at 10 mg/kg. In kind it is ADME, organism-based. Also noted: dose 10 mg/kg.
In series [29] the target is T1, RAC-alpha serine/threonine-protein kinase. The series is described as follows: Inhibition of Akt1 at 0.99 uM.
Series [30] has the same target. The series is described as follows: Inhibition of Akt1 using 10 uM ATP.

Molecule `N[C@H](COc1cncc(/C=C/c2ccncc2)c1)C(=O)Nc1ccc2ccccc2c1` came in with an inhibition in series [1] of 4%.
In [2], `N[C@H](COc1cnccc1/C=C/c1ccncc1)Cc1ccccc1` returned an inhibition of 29%.
In turn, `N[C@H](COc1cncc(/C=C/c2ccncc2)c1)C(=O)O` showed an inhibition in series [1] of 11%.
Molecule `N[C@H](COc1cncc(/C=C/c2ccccc2)c1)Cc1c[nH]c2ccccc12` had an inhibition in [1] of 17%.
Consider `N[C@H](COc1cncc(/C=C/c2ccncc2)c1)Cc1c[nH]c2ccccc12`, for which the Vd in series [3] came to 5.2 L/kg; in [7], 12.8 L/kg; in series [16] it was 6.5 L/kg; in series [23], 9.1 L/kg. Moreover, the Cmax amounted to 2780 ng/mL in series [4], 300 ng/mL in series [5], 100 ng/mL in [6] and 40 ng/mL in series [12]. The half-life is 3.7 h in series [8], 3.1 h in series [15], 3.2 h in [18] and 0.8 h in series [22]. In addition, the clearance in [9] was 95 mL/min/kg; in series [11], 20 mL/min/kg; in series [17] it was 26.7 mL/min/kg; in [21], 41.7 mL/min/kg. In addition, 12 µM corresponded to half-maximal inhibition in series [10] (IC50). Also, the bioavailability in [13] is 39%; in [14], 21%; in [19], 52%; in series [20], 12%.
As for `N[C@H](COc1cc(/C=C/c2ccncc2)ccn1)Cc1c[nH]c2ccccc12`, in series [1], the inhibition is 16%.
Regarding `N[C@H](CCc1cnc(Cl)c(/C=C/c2ccncc2)c1)Cc1c[nH]c2ccccc12`, in [24], the half-life is 0.2 h. The Cmax in series [25] came out at 90 ng/mL. This molecule also registered a bioavailability in series [26] of under 10%. In addition, the Vd in series [27] amounted to 4.9 L/kg. The molecule also showed a clearance in [28] of 288 mL/min/kg.
In [29], `N[C@@H](Cc1c[nH]cn1)C(=O)Nc1cncc(/C=C/c2ccncc2)c1` showed an inhibition of 73%.
Consider `N[C@H](CNc1cnc(Cl)c(/C=C/c2ccncc2)c1)Cc1c[nH]c2ccccc12`, for which the half-life in series [24] was 0.6 h. Moreover, in [25], the Cmax was under 20 ng/mL. In addition, the bioavailability in [26] turned out to be 0%. Further, in series [27], the Vd is 9.5 L/kg. In addition, the clearance in series [28] was 190 mL/min/kg.
In series [1], `N[C@H](COc1cccc(/C=C/c2ccncc2)c1)Cc1c[nH]c2ccccc12` yielded an inhibition of 35%.
As for `C(=C\c1cncc(OCCCc2c[nH]c3ccccc23)c1)/c1ccncc1`, in series [30], the IC50 was over 50 µM.
With `N[C@H](COc1cncc(/C=C/c2ccncc2)c1)Cc1csc2ccccc12`, the Vd in [3] was found to be 3.6 L/kg. In series [5], this molecule showed a Cmax of 620 ng/mL. The molecule also showed a clearance in series [11] of 16.7 mL/min/kg. This molecule returned a bioavailability in series [14] of 43%. In addition, the half-life in [15] is 2.5 h.
For `N[C@H](COc1cnc(Cl)c(/C=C/c2ccncc2)c1)Cc1c[nH]c2ccccc12`, the Vd in series [3] was found to be 9.9 L/kg; in series [7] it was 11.1 L/kg; in series [16], 4.8 L/kg; in series [23], 4.2 L/kg. The Cmax in series [4] stood at 940 ng/mL; in [5] it was 60 ng/mL; in [6] it was 120 ng/mL; in series [12] it was 60 ng/mL. Further, the half-life is 3 h in [8], 3.1 h in series [15], 5.4 h in series [18] and 0.8 h in series [22]. Besides, the clearance in [9] is 68.3 mL/min/kg; in [11] it was 36.7 mL/min/kg; in [17] it was 16.2 mL/min/kg; in series [21], 23.3 mL/min/kg. Also, the bioavailability was determined as 11% in series [13], 17% in [14], 45% in [19] and 12% in series [20].
